Key:
[1] = target: T1, Progesterone receptor (Homo sapiens, UniProt P06401); assay type: functional
T1 sequence (P06401 whole entry): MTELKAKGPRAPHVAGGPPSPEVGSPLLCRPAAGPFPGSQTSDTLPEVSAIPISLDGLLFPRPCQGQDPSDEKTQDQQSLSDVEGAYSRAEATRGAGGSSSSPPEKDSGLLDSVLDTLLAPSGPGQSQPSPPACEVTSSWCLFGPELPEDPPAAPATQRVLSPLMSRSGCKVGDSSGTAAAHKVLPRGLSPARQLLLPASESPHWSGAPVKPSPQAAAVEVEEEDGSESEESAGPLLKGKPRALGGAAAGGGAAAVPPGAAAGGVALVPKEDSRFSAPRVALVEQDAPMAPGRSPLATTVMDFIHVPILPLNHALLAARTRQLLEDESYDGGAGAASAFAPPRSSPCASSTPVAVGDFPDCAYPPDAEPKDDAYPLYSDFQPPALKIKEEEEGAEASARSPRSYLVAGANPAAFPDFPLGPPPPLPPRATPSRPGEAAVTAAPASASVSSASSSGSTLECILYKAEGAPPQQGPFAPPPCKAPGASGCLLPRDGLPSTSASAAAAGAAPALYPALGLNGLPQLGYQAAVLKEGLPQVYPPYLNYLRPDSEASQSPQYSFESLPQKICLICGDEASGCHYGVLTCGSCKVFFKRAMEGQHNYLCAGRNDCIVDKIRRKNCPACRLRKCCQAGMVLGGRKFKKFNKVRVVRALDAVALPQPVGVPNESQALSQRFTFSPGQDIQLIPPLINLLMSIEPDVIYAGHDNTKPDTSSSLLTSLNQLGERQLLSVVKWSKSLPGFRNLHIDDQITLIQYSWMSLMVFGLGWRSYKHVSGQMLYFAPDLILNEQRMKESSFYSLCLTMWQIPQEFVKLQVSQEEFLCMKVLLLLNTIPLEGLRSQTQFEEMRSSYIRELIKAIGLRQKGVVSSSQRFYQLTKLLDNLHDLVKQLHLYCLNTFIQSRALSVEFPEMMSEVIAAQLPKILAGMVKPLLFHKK

[2] = target: T2, Glucocorticoid receptor (Homo sapiens, UniProt P04150)
T2 sequence (P04150 whole entry): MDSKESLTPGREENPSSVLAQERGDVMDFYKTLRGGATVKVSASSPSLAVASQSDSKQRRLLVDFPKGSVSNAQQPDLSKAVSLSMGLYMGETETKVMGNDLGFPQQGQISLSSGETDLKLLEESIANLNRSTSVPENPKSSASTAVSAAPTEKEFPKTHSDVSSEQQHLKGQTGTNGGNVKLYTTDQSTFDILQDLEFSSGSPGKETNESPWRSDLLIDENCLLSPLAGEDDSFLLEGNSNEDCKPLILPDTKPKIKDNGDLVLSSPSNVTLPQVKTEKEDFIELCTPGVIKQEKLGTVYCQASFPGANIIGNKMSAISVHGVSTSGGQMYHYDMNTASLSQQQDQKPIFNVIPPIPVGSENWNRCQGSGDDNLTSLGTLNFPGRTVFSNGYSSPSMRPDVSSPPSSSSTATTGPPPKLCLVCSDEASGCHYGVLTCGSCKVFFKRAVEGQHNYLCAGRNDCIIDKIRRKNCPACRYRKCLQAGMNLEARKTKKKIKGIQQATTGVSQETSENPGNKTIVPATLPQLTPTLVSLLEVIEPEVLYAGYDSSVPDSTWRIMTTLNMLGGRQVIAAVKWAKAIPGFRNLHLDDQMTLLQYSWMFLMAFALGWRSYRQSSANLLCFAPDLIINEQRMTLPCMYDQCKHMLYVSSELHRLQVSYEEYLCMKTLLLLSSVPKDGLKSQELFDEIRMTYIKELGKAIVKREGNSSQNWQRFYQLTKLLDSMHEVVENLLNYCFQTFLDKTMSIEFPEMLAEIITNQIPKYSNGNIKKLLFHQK

[3] = target: Sodium-dependent noradrenaline transporter (Homo sapiens, UniProt P23975)
Sodium-dependent noradrenaline transporter, sequence (P23975 whole entry): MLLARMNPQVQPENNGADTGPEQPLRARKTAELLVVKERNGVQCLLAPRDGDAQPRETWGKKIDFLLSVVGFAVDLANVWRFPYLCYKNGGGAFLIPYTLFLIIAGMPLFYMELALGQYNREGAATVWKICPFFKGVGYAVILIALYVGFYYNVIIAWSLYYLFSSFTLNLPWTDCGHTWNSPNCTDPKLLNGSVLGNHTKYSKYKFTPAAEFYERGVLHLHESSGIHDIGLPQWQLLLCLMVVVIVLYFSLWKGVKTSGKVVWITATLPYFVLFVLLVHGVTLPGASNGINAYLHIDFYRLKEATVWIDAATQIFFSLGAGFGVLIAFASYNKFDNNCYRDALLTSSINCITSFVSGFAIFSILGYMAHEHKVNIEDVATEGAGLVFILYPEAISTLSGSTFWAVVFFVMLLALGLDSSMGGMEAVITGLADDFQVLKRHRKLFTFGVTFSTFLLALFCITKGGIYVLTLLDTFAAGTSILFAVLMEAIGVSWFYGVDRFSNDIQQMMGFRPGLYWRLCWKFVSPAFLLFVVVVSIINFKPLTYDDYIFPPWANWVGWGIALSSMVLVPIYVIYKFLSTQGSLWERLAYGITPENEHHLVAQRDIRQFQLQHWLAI

[4] = target: T3, Muscarinic acetylcholine receptor M1 (Homo sapiens, UniProt P11229); assay type: functional, cell-based
T3 sequence (P11229 whole entry): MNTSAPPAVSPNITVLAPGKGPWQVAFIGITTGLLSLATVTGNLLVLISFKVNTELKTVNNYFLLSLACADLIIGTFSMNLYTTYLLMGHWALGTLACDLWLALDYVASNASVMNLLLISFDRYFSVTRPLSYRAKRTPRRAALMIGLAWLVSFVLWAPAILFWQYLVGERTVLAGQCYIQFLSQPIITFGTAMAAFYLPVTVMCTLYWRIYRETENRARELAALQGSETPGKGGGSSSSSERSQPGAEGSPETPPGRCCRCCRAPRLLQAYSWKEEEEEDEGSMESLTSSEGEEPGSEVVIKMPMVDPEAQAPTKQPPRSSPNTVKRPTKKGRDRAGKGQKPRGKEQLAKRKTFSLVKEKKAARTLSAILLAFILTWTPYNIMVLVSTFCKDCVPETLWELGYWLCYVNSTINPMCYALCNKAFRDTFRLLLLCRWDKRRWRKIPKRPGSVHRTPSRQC

[5] = target: D(3) dopamine receptor (Homo sapiens, UniProt P35462)
D(3) dopamine receptor, sequence (P35462 whole entry): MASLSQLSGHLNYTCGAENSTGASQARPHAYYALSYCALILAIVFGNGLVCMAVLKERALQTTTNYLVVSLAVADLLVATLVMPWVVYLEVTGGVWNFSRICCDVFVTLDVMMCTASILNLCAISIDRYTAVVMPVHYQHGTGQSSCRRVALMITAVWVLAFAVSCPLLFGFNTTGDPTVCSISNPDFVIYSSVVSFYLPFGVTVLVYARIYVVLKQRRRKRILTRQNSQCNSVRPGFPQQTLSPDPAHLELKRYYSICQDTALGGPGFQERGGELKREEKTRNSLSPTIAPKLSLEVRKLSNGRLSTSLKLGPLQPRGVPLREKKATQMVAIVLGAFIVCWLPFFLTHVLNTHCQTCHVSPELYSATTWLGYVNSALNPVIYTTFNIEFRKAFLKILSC

[6] = target: D(1A) dopamine receptor (Homo sapiens, UniProt P21728); assay type: functional, cell-based
D(1A) dopamine receptor, sequence (P21728 whole entry): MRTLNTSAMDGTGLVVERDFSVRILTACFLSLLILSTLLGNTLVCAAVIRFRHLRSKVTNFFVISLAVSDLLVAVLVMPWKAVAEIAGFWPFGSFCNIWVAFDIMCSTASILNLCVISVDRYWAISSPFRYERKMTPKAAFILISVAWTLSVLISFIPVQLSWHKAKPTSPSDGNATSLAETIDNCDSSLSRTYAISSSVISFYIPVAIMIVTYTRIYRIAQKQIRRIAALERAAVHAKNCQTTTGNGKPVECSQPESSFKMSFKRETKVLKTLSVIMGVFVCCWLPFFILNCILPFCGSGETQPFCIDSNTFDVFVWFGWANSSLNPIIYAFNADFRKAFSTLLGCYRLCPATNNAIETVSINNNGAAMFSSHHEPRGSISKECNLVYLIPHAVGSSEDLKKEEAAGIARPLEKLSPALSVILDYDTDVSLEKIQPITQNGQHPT

[7] = target: T4, Muscarinic acetylcholine receptor M2 (Homo sapiens, UniProt P08172); assay type: functional, cell-based
T4 sequence (P08172 whole entry): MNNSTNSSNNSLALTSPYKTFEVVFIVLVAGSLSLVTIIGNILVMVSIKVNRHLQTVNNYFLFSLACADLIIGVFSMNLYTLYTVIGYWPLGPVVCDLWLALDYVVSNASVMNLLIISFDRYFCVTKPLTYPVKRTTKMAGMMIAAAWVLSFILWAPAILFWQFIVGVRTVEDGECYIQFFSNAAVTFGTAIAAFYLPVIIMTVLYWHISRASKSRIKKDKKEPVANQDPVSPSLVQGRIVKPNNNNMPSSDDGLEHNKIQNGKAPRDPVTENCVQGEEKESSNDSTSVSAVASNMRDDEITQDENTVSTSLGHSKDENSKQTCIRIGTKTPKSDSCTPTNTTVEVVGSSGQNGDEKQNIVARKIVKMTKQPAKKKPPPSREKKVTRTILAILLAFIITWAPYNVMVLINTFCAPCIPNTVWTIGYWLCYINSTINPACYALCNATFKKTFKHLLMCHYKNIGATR

[8] = target: Cannabinoid receptor 1 (Homo sapiens, UniProt P21554); assay type: functional, cell-based
Cannabinoid receptor 1, sequence (P21554 whole entry): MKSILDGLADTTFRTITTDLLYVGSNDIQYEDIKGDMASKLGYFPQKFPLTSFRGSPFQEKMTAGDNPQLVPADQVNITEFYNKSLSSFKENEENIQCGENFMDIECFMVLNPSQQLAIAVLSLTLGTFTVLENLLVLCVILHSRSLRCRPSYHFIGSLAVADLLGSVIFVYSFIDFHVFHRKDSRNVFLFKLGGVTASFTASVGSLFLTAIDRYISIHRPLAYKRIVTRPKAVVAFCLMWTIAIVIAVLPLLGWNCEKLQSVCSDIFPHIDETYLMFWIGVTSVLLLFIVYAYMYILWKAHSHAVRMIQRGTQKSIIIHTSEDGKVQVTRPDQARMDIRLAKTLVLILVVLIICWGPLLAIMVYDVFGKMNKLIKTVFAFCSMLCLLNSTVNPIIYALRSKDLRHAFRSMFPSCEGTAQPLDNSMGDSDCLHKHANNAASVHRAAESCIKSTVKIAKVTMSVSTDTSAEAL
Further: assay procedure not described here.

Row | Compound | AC50 [3] [µM] | AC50 [4] [µM] | AC50 [5] [µM] | AC50 [6] [µM] | AC50 [7] [µM] | further results
1 | CC(=O)/N=c1/sc(S(N)(=O)=O)nn1C [METHAZOLAMIDE] | > 10 | > 30 | > 30 | > 10 | > 10 | AC50 [1]: > 10 µM; AC50 [2]: > 10 µM
2 | CC(=O)Oc1ccccc1C(=O)Nc1ncc([N+](=O)[O-])s1 [NITAZOXANIDE] | 5.1 | 4.33 | 25 | > 30 | 1.4 | AC50 [1]: > 30 µM; AC50 [2]: > 30 µM; AC50 [8]: > 30 µM
3 | CCCCCCCCCCC[C@@H](C[C@@H]1OC(=O)[C@H]1CCCCCC)OC(=O)[C@H](CC(C)C)NC=O [ORLISTAT] | – | > 30 | – | – | – | –
4 | O=C1[C@H]2CCCC[C@H]2C(=O)N1CCCCN1CCN(c2nsc3ccccc23)CC1 [PEROSPIRONE] | – | 10.3 | – | – | – | –
5 | CN(C)CCC(c1ccccc1)c1ccccn1 (stereo unspecified) [PHENIRAMINE] | – | > 30 | – | – | – | –
6 | CNC[C@H](O)c1cccc(O)c1 [PHENYLEPHRINE] | > 10 | > 30 | 4.1 | 3.13 | > 10 | AC50 [8]: > 30 µM
7 | CC(C)(C)C(=O)NCCCC(=O)O [PIVAGABINE] | – | > 30 | – | – | – | –
8 | CC(C)[N+](C)(CCOC(=O)C1c2ccccc2Oc2ccccc21)C(C)C [PROPANTHELINE] | – | 0.003 | – | – | – | –
9 | CN(C)C(=O)c1nc(CNC(=O)CN)n(-c2ccc(Cl)cc2C(=O)c2ccccc2Cl)n1 [RILMAZAFONE] | – | > 30 | – | – | – | –
10 | NC(=O)NS(=O)(=O)c1ccc(N)cc1 [SULFACARBAMIDE] | – | > 30 | – | – | – | –
11 | CC1(C)O[C@@H]2[C@@H](CO[C@@]3(COS(N)(=O)=O)OC(C)(C)O[C@@H]23)O1 [TOPIRAMATE] | > 10 | > 30 | > 10 | > 10 | > 10 | AC50 [8]: > 30 µM
12 | NCCc1ccc(O)cc1 [TYRAMINE] | – | > 30 | – | – | – | –
13 | CCCCCCCCCCCCCCCC(=O)OC/C=C(C)/C=C/C=C(C)/C=C/C1=C(C)CCCC1(C)C [VITAMIN A PALMITATE] | – | > 30 | – | – | – | –

From ChEMBL document CHEMBL5291721, “A preclinical secondary pharmacology resource illuminates target-adverse drug reaction associations of marketed drugs” (Nat Commun, 2023)
